Reference: patent US9278940B2, “Cyclic amines as bromodomain inhibitors” (Zenith Epigenetics Corp., priority 2012, dated 2016)
Where a name gives a salt, the structure may show the parent alone.

Assays:
[1] = test system: hIL-6 mRNA; experiment: Inhibition of hIL-6 mRNA transcription in LPS-stimulated U937 macrophages; type: cell-based, human; design: key: Active: Compounds with an IC50 value less than 30 μM are deemed to be active.; Not Active: Compounds with an IC50 value less than 30 μM are deemed to be active; conditions: U937 cells differentiated with PMA, 1 h pretreatment, LPS 3 h
Procedure, shortened: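 U937 cells differentiated to macrophages with 60 ng/mL PMA for 3 days, pretreated 1 h with compound, then stimulated with 1 ug/mL E. coli LPS for 3 h at 37° C. IL-6 mRNA measured by one-step qRT-PCR, Ct normalized to internal control, expressed as fold induction relative to control.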

[2] = test system: hApoA-1 mRNA; experiment: Up-regulation of hApoA-1 mRNA transcription in Huh7 cells; type: cell-based, human; design: key: Active: Compounds with an EC170 value less than 30 μM are deemed to be active.; Not Active: Compounds with an EC170 value less than 30 μM are deemed to be active; conditions: 48 hrs treatment, ApoA-I mRNA
Procedure, shortened: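 Huh7 cells plated 24 h before compound, then treated 48 h; mRNA isolated from lysates and ApoA-I quantified by one-step real-time PCR. Fold induction derived from Ct values relative to the matching DMSO control; EC170 reported as activity measure.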

[3] = test system: MV4-11 cells; experiment: In vivo efficacy in acute myeloid leukemia xenograft model using MV4-11 cells; design: species or system mouse; conditions: athymic nude mice, MV4-11 xenograft, oral 75 mg/kg b.i.d and 120 mg/kg b.i.d, tumor growth inhibition vs vehicle
Procedure: MV4-11 cells (ATCC) were grown under standard cell culture conditions and (NCr) nu/nu fisol strain of female mice age 6-7 weeks were injected 5e^6 cells/animal in 100 μl PBS+100 μl Matrigel in lower left abdominal flank. Approximately by day 18 after MV4-11 cells injection, mice were randomized based on tumor volume (L×W×H)/2) of average ^˜120 mm^3. Mice were dosed orally with compound at 75 mg/kg b.i.d and 120 mg/kg b.i.d in EA006 formulation at 10 mL/kg body weight dose volume. Tumor measurements were taken with electronic micro caliper and body weights measured on alternate days beginning from dosing period. The average tumor volumes, percent Tumor Growth Inhibition (TGI) and % change in body weights were compared relative to Vehicle control animals. The means, statistical analysis and the comparison between groups were calculated using student's t-test in Excel.

[4] = test system: IL-6 and IL-17 cytokines; experiment: In vivo efficacy in mouse endotoxemia model; conditions: C57/Bl6 mice, oral 75 mg/kg, inhibition of IL-6 and IL-17 post 4 hour LPS challenge 0.5 mg/kg intraperitoneally
Procedure: Sub lethal doses of Endotoxin (E. Coli bacterial lipopolysaccharide) were administered to animals to produce a generalized inflammatory response which was monitored by increases in secreted cytokines. Compounds were administered to C57/Bl6 mice orally at 75 mg/kg dose to evaluate inhibition in IL-6 and IL-17 cytokines post 4 hour challenge with Lipopolysaccharide (LPS) at 0.5 mg/kg dose intraperitoneally.

[5] = In vivo efficacy in rat collagen induced arthritis; conditions: female Lewis rats, collagen Day 1 and 7, dosed Day 11 to Day 17
Procedure: Rat collagen-induced arthritis is an experimental model of polyarthritis that has been widely used for preclinical testing of numerous anti-arthritic agents. Following administration of collagen, this model establishes a measurable polyarticular inflammation, marked cartilage destruction in association with pannus formation and mild to moderate bone resorption and periosteal bone proliferation. In this model, collagen was administered to female Lewis strain of rats on Day 1 and 7 of study and dosed with compounds from Day 11 to Day 17. Test compounds were evaluated to assess the potential to inhibit the inflammation (including paw swelling), cartilage destruction and bone resorption in arthritic rats, using a model in which the treatment is administered after the disease has been established.

COc1cc(OC)c2c(=O)[nH]c(-c3cccc(N4CCN(C(C)C)CC4)n3)nc2c1 [Example 17, 2-(6-(4-Isopropylpiperazin-1-yl)pyridin-2-yl)-5,7-dimethoxyquinazolin-4(3H)-one Hydrochloride]
Active: IL-6 activity (IC50 < 30 μM) [1] | ApoA-1 activity (EC170 < 30 μM) [2] | In vivo activity [3] | In vivo activity [4] | In vivo activity [5]
